Source: patent US20090093069A1, “Topiramate Immunoassays” (ARK Diagnostics, Inc., priority 2007, published 2009)

What was measured:
Assay type in all cases: binding
[1] = system: rabbit polyclonal antibody #11341; assay: Coadministered drug interference study in the homogeneous enzyme immunoassay (HITACHI 917)
Procedure: The antibody was added into the antibody diluent to prepare the antibody reagent. The antibody reagent consists of antibody as prepared above, buffer, stabilizers, preservatives, and the substrates for the enzyme conjugate NAD and glucose 6 phosphate. […] The enzyme conjugate reagent consists of the conjugate, buffer, stabilizers and preservatives.
(§1) The ARK Assay for topiramate is conducted using a liquid, ready-to-use, two-reagent kit. […] Topiramate containing sample is incubated with antibody reagent followed by the addition of the enzyme conjugate reagent. The enzyme conjugate activity decreases upon binding to the antibody. The enzyme conjugate, which is not bound to the antibody, catalyzes the oxidation of glucose 6-phosphate (G6P). The oxidation of G6P is coupled with the reduction of NAD^+ to NADH, which can be measured at 340 nm. The change in the absorbance at 340 nm can be measured spectrophotometrically. The topiramate concentration in a specimen can be measured in terms of G6PDH activity. The increase in the rate at 340 nm is due to the formation of NADH and is proportional to the enzyme conjugate activity. […] The assay rate increases with increasing the concentration of drug in the sample.
A high concentration of each coadministered drug was spiked into normal human serum with containing topiramate 20 μg/mL and assayed. Each sample was assayed in duplicate. […] The percentage concentration above 20.0 μg/mL of topiramate was calculated for each coadministered drug tested.

[2] = system: antibodies raised with immunogens (10-KLH, 12-KLH, 12-L-KLH, 19-KLH, 22-KLH and 25-KLH); assay: Enzyme-based assay format, reactivity of antibodies raised with the immunogens
Source text: All the prepared haptens have utility for KLH and G6PDH bio-conjugation. immunogens (10-KLH, 12-KLH, 12-L-KLH, 19-KLH, 22-KLH and 25-KLH) were used to raise antibodies.

[3] = system: antibody from rabbit #11341; assay: Crossreactivity to topiramate metabolites in the homogeneous enzyme immunoassay (HITACHI 917); settings: metabolite 50.0 μg/mL, in the presence of 20 μg/mL topiramate
Procedure: % Crossreactivity=100×(“apparent concentration of measurand”/“concentration of crossreactant”)
as §1
The apparent topiramate concentration for the metabolite is the difference in concentration with metabolite minus the concentration without metabolite.

[4] = 100.0 μg/mL drug added to human serum containing 20.0 μg/mL topiramate
[5] = 750.0 μg/mL drug added to human serum containing 20.0 μg/mL topiramate
[6] = 50.0 μg/mL drug added to human serum containing 20.0 μg/mL topiramate
[7] = 500.0 μg/mL drug added to human serum containing 20.0 μg/mL topiramate
[8] = 200.0 μg/mL drug added to human serum containing 20.0 μg/mL topiramate

Which “% Interference [(20.0 μg/mL Topiramate) − (Result)] ÷ (drug conc.) × 100” value (from here on “% Interference”) [1, 4] does the source give for `CCC1(c2ccccc2)C(=O)NCNC1=O` [Primidone] here?
Its value is −1.83%.

Which “% Interference” value [1, 5] does the source give for `CCCCNC(=O)NS(=O)(=O)c1ccc(C)cc1` [Tolbutamide] here?
The value was −0.08%.

With `Nc1nnc(-c2cccc(Cl)c2Cl)c(N)n1` [Lamotrogine] as the compound, how does the “% Interference” value [1, 4] read?
Its value is −1.02%.

Which “% Interference” value [1, 5] does the source give for `O=C(O)c1ccccc1O` [Salicylic Acid] here?
The value was −5.73%.

For `CC(C)NCC(O)COc1ccc(CC(N)=O)cc1` (stereo not drawn) [Atenolol], which “% Interference” value [1, 6] is on record?
Its value is −0.40%.

How did the “% Interference” value [1, 4] turn out when `COc1ccc(CCN(C)CCCC(C#N)(c2ccc(OC)c(OC)c2)C(C)C)cc1OC` (stereo not drawn) [Verapamil] was run?
Its value is 1.07%.

`CCC1(c2ccccc2)C(=O)NC(=O)NC1=O` [Phenobarbitol] was tested. Which “% Interference” value [1, 4] did it give?
Its value is 1.08%.

`CCC1(C)CC(=O)NC1=O` (stereo not drawn) [Ethosuxamide] was tested. Which “% Interference” value [1, 7] did it give?
Its value is −0.09%.

With `CC[C@@H](C(N)=O)N1CCCC1=O` [Levetiracetam] as the compound, how does the “% Interference” value [1, 8] read?
The value was −0.45%.

For `CC(=O)Nc1nnc(S(N)(=O)=O)s1` [Acetazolamide], which “% Interference” value [1, 6] is on record?
Its value is 0.56%.

With `CN1C(=O)CN=C(c2ccccc2)c2cc(Cl)ccc21` [Diazepam] as the compound, how does the “% Interference” value [1, 6] read?
Its value is 0.64%.

With `CC(=O)Nc1ccc(O)cc1` [Acetominophen] as the compound, how does the “% Interference” value [1, 6] read?
Its value is −0.38%.

`NS(=O)(=O)Cc1noc2ccccc12` [Zonisamide] was tested. Which “% Interference” value [1, 8] did it give?
Its value is 0.08%.

How did the “% Interference” value ([1]; 10.0 μg/mL drug added to human serum containing 20.0 μg/mL topiramate) turn out when `NS(=O)(=O)c1cc(C(=O)O)c(NCc2ccco2)cc1Cl` [Furosemide] was run?
Its value is 0.10%.

For `CC(C)Cc1ccc(C(C)C(=O)O)cc1` (stereo not drawn) [Ibuprofen], which “% Interference” value [1, 6] is on record?
Its value is 2.30%.

Which “% Interference” value [1, 4] does the source give for `COCCc1ccc(OCC(O)CNC(C)C)cc1` (stereo not drawn) [Metoprolol] here?
The value was 0.35%.

`CCCC(CCC)C(=O)O` [Valproic Acid] was tested. Which “% Interference” value [1, 8] did it give?
Its value is 0.50%.

How did the “% Interference” value ([1]; 2000.0 μg/mL drug added to human serum containing 20.0 μg/mL topiramate) turn out when `Nc1ccc(S(N)(=O)=O)cc1` [Sulfanilamide] was run?
The value was −0.16%.

How did the “reactivity of the antibodies” value [2] turn out when `CC1(C)O[C@@H]2[C@@H](CO[C@@]3(CO)OC(C)(C)O[C@@H]23)O1` [diacetonefructose] was run?
Its value is “good reactivity”.

For `CC1(C)O[C@H]2[C@@H]3O[C@@](C)(CO)O[C@@H]3CO[C@@]2(COS(N)(=O)=O)O1` [10-OH-Topiramate, 10-hydroxytopiramate], which “% Cross Reactivity” value [3] is on record?
Its value is 3.20%.

`NS(=O)(=O)c1cc(C2(O)NC(=O)c3ccccc32)ccc1Cl` (stereo not drawn) [Chlorthalidone] was tested. Which “% Interference” value [1, 4] did it give?
Its value is 0.16%.

How did the “% Cross Reactivity” value [3] turn out when `CC1(C)O[C@H]2[C@@H]3O[C@](C)(CO)O[C@@H]3CO[C@@]2(COS(N)(=O)=O)O1` [9-OH-Topiramate, 9-hydroxytopiramate] was run?
The value was 3.18%.

Which “% Interference” value [1, 4] does the source give for `CC(=O)Oc1ccccc1C(=O)O` [Acetylsalicyclic Acid] here?
Its value is 0.25%.

Which “% Interference” value [1, 6] does the source give for `O=C1NC(=O)C(c2ccccc2)(c2ccccc2)N1` [Phenytoin] here?
The value was 0.32%.

How did the “% Interference” value [1, 4] turn out when `NC(=O)N1c2ccccc2C=Cc2ccccc21` [Carbamazepine] was run?
The value was −0.43%.

`Cn1c(=O)c2c(ncn2C)n(C)c1=O` [Caffeine] was tested. Which “% Interference” value [1, 4] did it give?
The value was 0.35%.

How did the “% Interference” value [1, 6] turn out when `O=C1CN=C(c2ccccc2Cl)c2cc([N+](=O)[O-])ccc2N1` [Clonazepam] was run?
The value was 0.70%.

For `NC(=O)OCC(COC(N)=O)c1ccccc1` [Felbamate], which “% Interference” value [1, 7] is on record?
Its value is 0.20%.

With `NCC1(CC(=O)O)CCCCC1` [Gabapentin] as the compound, how does the “% Interference” value [1, 4] read?
Its value is −0.49%.

Which “% Interference” value ([1]; 5.0 μg/mL drug added to human serum containing 20.0 μg/mL topiramate) does the source give for `NC(N)=Nc1nc(CSCCC(N)=NS(N)(=O)=O)cs1` [Famotidine] here?
The value was −0.2%.
